Patent publication US20260125359A1, “HETEROARYL COMPOUNDS AS MULTI-TARGET PROTEIN KINASE INHIBITORS” (FUJIAN HAIXI PHARMACEUTICALS CO., LTD., priority 2023, published 2026)

Tested on: M-NFS-60 cells
Assay: M-NFS-60 cell in vitro assay (CCK, 48 h, M-CSF factor medium)
Format: cell-based
Conditions: M-NFS-60 cells; read-out: M-NFS-60cellassay IC50
Outline: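 IC50 values were fitted from CCK absorbance (450 nm, 2 h development) after 48 h compound treatment. Cells: M-NFS-60, seeded 2000/well and rested 4 h, grown in medium carrying 25 ng/ml M-CSF factor plus 10% serum; compounds serially diluted in DMSO.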

SMILES | IC50 [nM]
Cn1cc(-c2cnc(N)c(O[C@H]3CCc4c(C(=O)Nc5cccc(C6CC6)c5)cccc43)c2)cn1 [Compound 4, (S)-1-((2-amino-5-(1-methyl-1H-pyrazol-4-yl)pyridin-3-yl)oxy)-N-(3-cyclopropylphenyl)-2,3-dihydro-1H-indene-4-carboxamide] | < 50
Cc1cccc(NC(=O)c2cccc3c2CC[C@@H]3Nc2cncc(-c3cnn(C)c3)c2)c1 [Compound 13, (S)-1-((5-(1-methyl-1H-pyrazol-4-yl)pyridin-3-yl)amino)-N-(m-tolyl)-2,3-dihydro-1H-indene-4-carboxamide] | < 50
Cn1cc(-c2cncc(N[C@H]3CCc4c(C(=O)Nc5cncc(Cl)c5)cccc43)c2)cn1 [Compound 14aa, (S)—N-(5-chloropyridin-3-yl)-1-((5-(1-methyl-1H-pyrazol-4-yl)pyridin-3-yl)amino)-2,3-dihydro-1H-indene-4-carboxamide] | < 50
Cn1cc(-c2cncc(N[C@H]3CCc4c(C(=O)Nc5ccc(C(F)(F)F)nc5)cccc43)c2)cn1 [Compound 14ah] | < 50
CN1CCc2ccc(NC(=O)c3cccc4c3CC[C@@H]4Nc3cncc(-c4cnn(C)c4)c3)cc2C1 [Compound 14ap] | < 50
Cc1cncc(NC(=O)c2cccc3c2CC[C@@H]3Nc2cncc(-c3cnn(C)c3)c2)c1 [Compound 14as] | < 50
CN1CCc2nc(NC(=O)c3cccc4c3CC[C@@H]4Nc3cncc(-c4cnn(C)c4)c3)sc2C1 [Compound 14ba] | < 50
Cc1cccc(C(=O)Nc2cccc3c2CC[C@@H]3Oc2cncc(-c3cnn(C)c3)c2)c1 [Compound 15, (S)-3-methyl-N-(1-((5-(1-methyl-1H-pyrazol-4-yl)pyridin-3-yl)oxy)-2,3-dihydro-1H-inden-4-yl)benzamide] | 200 to 500
Cn1cc(-c2cncc(O[C@H]3CCc4c(C(=O)Nc5cncc(Cl)c5)cccc43)c2)cn1 [Compound 19a, (S)—N-(5-chloropyridin-3-yl)-1-((5-(1-methyl-1H-pyrazol-4-yl)pyridin-3-yl)oxy)-2,3-dihydro-1H-indene-4-carboxamide] | < 50
Cn1cc(-c2cncc(O[C@H]3CCc4c(C(=O)Nc5cccc(C6CC6)c5)cccc43)c2)cn1 [Compound 19b] | < 50
CN1CCc2nc(NC(=O)c3cccc4c3CC[C@@H]4Oc3cncc(-c4cnn(C)c4)c3)sc2C1 [Compound 19f] | 50 to 200
CN(C)Cc1cncc(NC(=O)c2cccc3c2CC[C@@H]3Oc2cncc(-c3cnn(C)c3)c2)c1 [Compound 19h] | > 500
Cc1cncc(NC(=O)c2cccc3c2CC[C@@H]3Oc2cncc(-c3cnn(C)c3)c2)c1 [Compound 19j] | < 50
Cc1cc(NC(=O)c2cccc3c2CC[C@@H]3Oc2cncc(-c3cnn(C)c3)c2)cc(C)n1 [Compound 19k, (S)—N-(2,6-dimethylpyridin-4-yl)-1-((5-(1-methyl-1H-pyrazol-4-yl)pyridin-3-yl)oxy)-2,3-dihydro-1H-indene-4-carboxamide] | < 50
CN(c1cncc(-c2cnn(C)c2)c1)[C@H]1CCc2c(C(=O)Nc3cncc(Cl)c3)cccc21 [Compound 21, (S)—N-(5-chloropyridin-3-yl)-1-(methyl (5-(1-methyl-1H-pyrazol-4-yl)pyridin-3-yl)amino)-2,3-dihydro-1H-indene-4-carboxamide] | 50 to 200
CN(c1cncc(-c2cnn(C)c2)c1)[C@H]1CCc2c(C(=O)Nc3cccc(C4CC4)c3)cccc21 [Compound 22a, (S)—N-(3-cyclopropylphenyl)-1-(methyl (5-(1-methyl-1H-pyrazol-4-yl)pyridin-3-yl)amino)-2,3-dihydro-1H-indene-4-carboxamide] | < 50
Cn1cc(-c2cncc(N[C@H]3CCc4c(C(=O)Nc5nn(C)c6ccccc56)cccc43)n2)cn1 [Compound 27g, (S)—N-(1-methyl-1H-indazol-3-yl)-1-((6-(1-methyl-1H-pyrazol-4-yl)pyrazin-2-yl)amino)-2,3-dihydro-1H-indene-4-carboxamide] | < 50
Cn1cc(-c2cncc(N[C@H]3CCc4c(Nc5cc(C(C)(C)C)on5)cccc43)c2)cn1 [Compound 41, (S)—N^4-(5-(tert-butyl)isoxazol-3-yl)-N^1-(5-(1-methyl-1H-pyrazol-4-yl)pyridin-3-yl)-2,3-dihydro-1H-indene-1,4-diamine] | < 50
Cn1cc(-c2cncc(N[C@H]3CCc4c(Nc5noc(C(C)(C)C)n5)cccc43)c2)cn1 [Compound 42o] | 50 to 200
Cn1ncc2ncc(N[C@H]3CCc4c(C(=O)Nc5cccc(C6CC6)c5)cccc43)cc21 [Compound 73, (S)—N-(3-cyclopropylphenyl)-1-((1-methyl-1H-pyrazolo[4,3-b]pyridin-6-yl)amino)-2,3-dihydro-1H-indene-4-carboxamide] | < 50
Cn1cc2ncc(N[C@H]3CCc4c(C(=O)Nc5nc(C6CC6)cs5)cccc43)cc2n1 [Compound 74h, (S)—N-(4-cyclopropylthiazol-2-yl)-1-((2-methyl-2H-pyrazolo[4,3-b]pyridin-6-yl)amino)-2,3-dihydro-1H-indene-4-carboxamide] | < 50
Cn1ncc2ncc(O[C@H]3CCc4c(C(=O)Nc5cncc(Cl)c5)cccc43)cc21 [Compound 76ac, (S)—N-(5-chloropyridin-3-yl)-1-((1-methyl-1H-pyrazolo[4,3-b]pyridin-6-yl)oxy)-2,3-dihydro-1H-indene-4-carboxamide] | < 50
Cn1cc2ncc(O[C@H]3CCc4c(C(=O)Nc5cncc(Cl)c5)cccc43)cc2n1 [Compound 76ai] | < 50
Cn1cc2ncc(O[C@H]3CCc4c(C(=O)Nc5nn(C)c6ccccc56)cccc43)cc2n1 [Compound 76al] | < 50
Cn1cc2ncc(O[C@H]3CCc4c(C(=O)Nc5nn(C)c6cccc(F)c56)cccc43)cc2n1 [Compound 76aw] | < 50
Cc1cccc(NC(=O)c2cccc3c2CC[C@@H]3Oc2cnc3cn(C)nc3c2)n1 [Compound 76bd] | < 50
CN(c1cnc2cn(C)nc2c1)[C@H]1CCc2c(C(=O)Nc3cncc(Cl)c3)cccc21 [Compound 80k] | < 50
CN(c1cnc2cn(C)nc2c1)[C@H]1CCc2c(C(=O)Nc3nn(C)c4ccccc34)cccc21 [Compound 80l] | < 50
Cn1ncc2ncc(N[C@H]3CCc4c(Nc5cc(C(C)(C)C)on5)cccc43)nc21 [Compound 86, (S)—N^4-(5-(tert-butyl)isoxazol-3-yl)-N1-(1-methyl-1H-pyrazolo[3,4-b]pyrazin-6-yl)-2,3-dihydro-1H-indene-1,4-diamine] | < 50
